Assay results from the supplement of paper PMC10307832.

Tests used:
Test in all cases: relative viability (nuclei count vs DMSO), 5 days (fraction); higher = more cells survive
Bicalutamide + AZD7762 = compound: CC(O)(CS(=O)(=O)c1ccc(F)cc1)C(=O)Nc1ccc(C#N)c(C(F)(F)F)c1 [Bicalutamide] + NC(=O)Nc1cc(-c2cccc(F)c2)sc1C(=O)N[C@H]1CCCNC1 [AZD7762] (partner 0.2 µM)
In short: (§1)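 Cells from lung cancer lines were seeded into 1536-well plates and, one day later, dosed by pin tool. Treatments were either a single drug or a fixed dose of an anchor drug with five library-drug doses (not always all listed) in √10 steps. After 5 days, nuclei were stained in a one-step fixation (final 0.05% Triton X-100, 1% formaldehyde, 1 ug/ml Hoechst) and counted on 4× images, and relative viability is the treated-to-vehicle nuclei ratio, as the median of duplicate plates.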

[1] = compound: C(C(=O)C(=O)O)Br [Bromopyruvate] + CS(=O)(=O)N1CCN(Cc2cc3nc(-c4cccc5[nH]ncc45)nc(N4CCOCC4)c3s2)CC1 [Pictilisib] (partner 1 µM)
In short: as §1

[2] = compound: C(C(=O)C(=O)O)Br [Bromopyruvate] + Nc1ncn([C@H]2C[C@H](O)[C@@H](CO)O2)c(=O)n1 [Decitabine] (partner 2 µM)
In short: as §1

[3] = compound: CC(O)(CS(=O)(=O)c1ccc(F)cc1)C(=O)Nc1ccc(C#N)c(C(F)(F)F)c1 [Bicalutamide] + CC(=O)Nc1cccc(-n2c(=O)n(C3CC3)c(=O)c3c(Nc4ccc(I)cc4F)n(C)c(=O)c(C)c32)c1 [Trametinib] (partner 0.02 µM)
In short: as §1

Cell Line	relative viability (Bicalutamide + AZD7762; first compound 0.08 µM)	relative viability (Bicalutamide + AZD7762; first compound 0.253 µM)	relative viability (Bicalutamide + AZD7762; first compound 0.8 µM)	relative viability (Bicalutamide + AZD7762; first compound 2.53 µM)	relative viability ([1]; first compound 1 µM)	relative viability ([1]; first compound 3.162 µM)	relative viability ([1]; first compound 10 µM)	relative viability ([1]; first compound 31.62 µM)	relative viability ([1]; first compound 100 µM)	relative viability ([2]; first compound 1 µM)	relative viability ([2]; first compound 3.162 µM)	relative viability ([2]; first compound 10 µM)	relative viability ([2]; first compound 31.62 µM)	relative viability ([2]; first compound 100 µM)	relative viability ([3]; first compound 0.08 µM)	relative viability ([3]; first compound 0.253 µM)	relative viability ([3]; first compound 0.8 µM)	relative viability ([3]; first compound 2.53 µM)
LC-2-ad	0.852	0.838	0.915	0.883	0.477	0.494	0.513	0.572	0.548	0.856	0.726	0.797	0.872	0.695	0.892	0.86	0.961	0.907
LCLC-97TM1	0.388	0.186	0.225	0.232			0.244	0.191	0.183	0.246	0.226	0.263	0.243	0.16	0.214	0.177	0.212	0.188
LCLC-103H	0.829	0.791	0.8	0.814	0.508	0.596	0.684	0.524	0.592	0.757	0.764	0.797	0.77	0.825	0.705	0.676	0.697	0.704
LK-2	0.432	0.254	0.442	0.495	0.548	0.526	0.59	0.704	0.642	0.277	0.232	0.287	0.325	0.272	0.652	0.672	1.15	0.742
LOU-NH91	0.725	0.653	0.793	0.751	0.588	0.548	0.48	0.516	0.589	0.868	0.79	0.799	0.876	0.861	0.755	0.724	0.82	0.791
LU99A	0.431	0.286	0.544	0.252	0.306	0.29	0.319	0.306	0.35	0.894	0.903	0.979	0.949	0.95	0.529	0.445	0.6	0.495
LXF-289	1.17	1.05	1.11	1.1	0.756	0.758	0.802	0.867	0.816	0.398	0.417	0.419	0.388	0.397	0.667	0.636	0.734	0.656
NCI-H23	0.315	0.236	0.27	0.2	0.448	0.535	0.433	0.502	0.409	0.299	0.294	0.308	0.277	0.303	0.418	0.317	0.434	0.399
NCI-H322M	0.581	0.521	0.579	0.572	0.464	0.536	0.502	0.529	0.56	0.705	0.717	0.747	0.758	0.669	0.537	0.541	0.502	0.503
NCI-H358	0.562	0.489	0.64	0.547	0.342	0.397	0.343	0.326	0.328	0.2	0.21	0.223	0.247	0.238	0.161	0.128	0.125	0.132
NCI-H441	1.06	1.08	1.13	1.16	0.428	0.543	0.498	0.466	0.571	0.324	0.238	0.243	0.22	0.242	0.492	0.374	0.497	0.406
NCI-H460	0.816	0.659	0.76	0.735	0.483	0.315	0.419	0.358	0.349	0.484	0.459	0.679	0.46	0.468	0.139	0.129	0.128	0.129
NCI-H596	1.13	1.04	1.08	1.11	0.431	0.396	0.419	0.419	0.423	1.64	1.11	0.974	1.05	1.03	0.76	0.765	0.994	0.952
NCI-H647	0.512	0.397	0.549	0.321	0.433	0.421	0.393	0.474	0.455	0.439	0.362	0.405	0.393	0.474	0.482	0.429	0.721	0.414
NCI-H650	0.847	1.09	1.21	0.886	0.804	0.778	0.972	0.92	1.01	0.295	0.322	0.316	0.281	0.26	1.04	1.01	1.12	0.934
NCI-H727	0.794	0.563	0.54	0.576	0.359	0.417	0.604	0.389	0.339	0.815	1.09	0.966	0.915	0.871	0.38	0.381	0.414	0.399
NCI-H838	0.965	0.958	1.02	0.909	0.463	0.446	0.495	0.493	0.448	0.485	0.461	0.408	0.405	0.457	0.553	0.419	0.661	0.293
NCI-H1355	0.828	0.701	0.923	0.72	0.43	0.438	0.466	0.577	0.422	0.382	0.328	0.316	0.343	0.336	0.432	0.383	0.447	0.472

Cell Line	relative viability (Bicalutamide + AZD7762; first compound 0.08 µM)	relative viability (Bicalutamide + AZD7762; first compound 0.253 µM)	relative viability (Bicalutamide + AZD7762; first compound 0.8 µM)	relative viability (Bicalutamide + AZD7762; first compound 2.53 µM)	relative viability ([1]; first compound 1 µM)	relative viability ([1]; first compound 3.162 µM)	relative viability ([1]; first compound 10 µM)	relative viability ([1]; first compound 31.62 µM)	relative viability ([1]; first compound 100 µM)	relative viability ([2]; first compound 1 µM)	relative viability ([2]; first compound 3.162 µM)	relative viability ([2]; first compound 10 µM)	relative viability ([2]; first compound 31.62 µM)	relative viability ([2]; first compound 100 µM)	relative viability ([3]; first compound 0.08 µM)	relative viability ([3]; first compound 0.253 µM)	relative viability ([3]; first compound 0.8 µM)	relative viability ([3]; first compound 2.53 µM)
NCI-H1395	0.402	0.399	0.394	0.377	0.556	0.561	0.568	0.629	0.615	0.754	0.717	0.751	0.707	0.707	0.986	1.04	1.12	0.948
NCI-H1437	1.17	1.13	1.15	1.19	0.464	0.502	0.47	0.413	0.496	0.672	0.588	0.524	0.583	0.577	0.598	0.475	0.612	0.476
NCI-H1651	0.513	0.396	0.549	0.436	0.516	0.539	0.69	0.594	0.549	0.604	0.587	0.709	0.548	0.588	0.836	0.773	0.932	0.83
NCI-H1666	0.928	0.759	0.873	0.801	0.43	0.418	0.567	0.558	0.531	0.679	0.738	0.835	0.66	0.705	0.926	0.838	0.866	0.959
NCI-H1734	0.568	0.439	0.645	0.571	0.493	0.486	0.542	0.551	0.451	0.505	0.507	0.629	0.502	0.457	0.709	0.531	0.681	0.663
NCI-H1755	0.382	0.388	0.475	0.365	0.484	0.512	0.448	0.467	0.456	0.793	0.684	0.721	0.672	0.659	0.738	0.774	0.776	0.751
NCI-H1792	0.756	0.522	0.741	0.644	0.306	0.29	0.328	0.317	0.212	0.57	0.614	0.45	0.498	0.555	0.439	0.362	0.542	0.434
NCI-H1793	0.705		0.432	0.282	0.391	0.32	0.305	0.272	0.237	0.535	0.472	0.697	0.393	0.516	0.382		0.448	0.439
NCI-H1915	0.721	0.616	0.712	0.682	0.95	0.934	0.9	0.955	0.897	0.258	0.273	0.268	0.249	0.271	0.338	0.288	0.286	0.229
NCI-H1944	0.496	0.438	0.519	0.366	0.353	0.354	0.352	0.315	0.365	0.419	0.423	0.503	0.39	0.44	0.408	0.393	0.421	0.397
NCI-H1975	0.769	0.783	0.722	0.667	0.301	0.318	0.323	0.326	0.3	0.396	0.402	0.341	0.394	0.413	0.323	0.412	0.386	0.339
NCI-H1993	0.539	0.744	0.919	0.58	0.827	0.729	0.895	0.935	0.774	0.612	0.609	0.628	0.655	0.464	0.492	0.519	0.536	0.56
NCI-H2085	0.983	0.99	1.02	0.901	0.429	0.426	0.463	0.437	0.498	0.626	0.557	0.529	0.593	0.526	0.513	0.554	0.535	0.404
NCI-H2087	1.29	1.29	1.58	1.26	0.834	0.984	0.96	0.844	0.886	0.307	0.318	0.248	0.305	0.259	0.214	0.191	0.178	0.202
NCI-H2126	0.994	0.918	1.01	0.856	0.531	0.511	0.456	0.562	0.509	0.625	0.603	0.543	0.582	0.564	0.546	0.523	0.545	0.626
NCI-H2170	0.805	0.817	1.26	0.902	0.435	0.367	0.274	0.319	0.306	0.471	0.464	0.424	0.44	0.438	0.892	0.861	0.97	0.931
NCI-H2347	0.797	0.753	0.753	0.73	0.899	0.478	0.737	0.541	0.677	0.605	0.643	0.541	0.616	0.635	0.283	0.287	0.307	0.249
NCI-H2405	0.739	0.713	0.88	0.694	0.441	0.524	0.431	0.349	0.517	0.696	0.732	0.854		0.665	0.674	0.606	0.78	0.638
